# Test results from patent publication US11542266B1, “Substituted piperidines as BTK inhibitors” (HAISCO PHARMACEUTICALS PTE. LTD., priority 2019, dated 2023).
# Where a name gives a salt, the structure may show the parent alone.
# Tested on: Mino cells
# Assay: Inhibition of cell proliferation, Mino cells (Cell Viability Assay, 72 h)
# Type: cell-based, human
# Settings: not given
# Procedure: SU-DHL-4, Mino, and SU-DHL-6 cells, in the culture medium of RPMI1640+10% FBS, were cultured in an incubator at 37° C. under 5% CO2. Cells were plated in a 96-well plate. Specifically, SU-DHL-4 cells were at 20000/well, Mino and SU-DHL-6 cells were at 5000/well, with 90 μL/well. 10 μL of the compounds at different concentrations were added to each well. There were 3 replicate wells for each concentration, and the last column, added with DMSO, was used as a vehicle control group. The cultures were continued for 72 hours at 37° C. under 5% CO2. After 72 hours, 100 μL of detection reagent (Cell Viability Assay, Promega, G7573) was added to each well, and the cultures were uniformly mixed for 2 minutes, and incubated at room temperature for 10 minutes. The fluorescence signal value was measured with a microplate reader (PHERAstar FSX). The IC50 value of the compound on cell proliferation inhibition was calculated using Origin 9.2 software, and the inhibition rate at the highest concentration of the compound (Max inhi. %) was calculated according to formula (1). Max inhi. %=(1-T72 administration/T72 vehicle)×100 Formula (1).
row,Structure (SMILES),IC50 [nM]
1,"Nc1ncnc2c1c(-c1ccc(Oc3ccccc3)cc1)nn2C1CCN(C2CCN(C3CN(c4ccc5c(c4)C(=O)N(C4CCC(=O)NC4=O)C5=O)C3)CC2F)CC1 (stereo not drawn) [Compound 46-1, trans-5-(3-(4-(4-amino-3-(4-phenoxyphenyl)-1H-pyrazolo[3,4-d]pyrimidin-1-yl)-3′-fluoro-[1,4′-bipiperidin]-1′-yl)azetidin-1-yl)-2-(2,6-dioxopiperidin-3-yl)isoindoline-1,3-dione-P1]",27
2,"Nc1ncnc2c1c(-c1ccc(Oc3ccccc3)cc1)nn2C1CCN(C2CCN(C3CN(c4ccc5c(c4)C(=O)N(C4CCC(=O)NC4=O)C5=O)C3)CC2F)CC1 (stereo not drawn) [Compound 49-1, cis-5-(3-(4-(4-amino-3-(4-phenoxyphenyl)-1H-pyrazolo[3,4-d]pyrimidin-1-yl)-3′-fluoro-[1,4′-bipiperidin]-1′-yl)azetidin-1-yl)-2-(2,6-dioxopiperidin-3-yl)isoindoline-1,3-dione-P1]",113

# Same assay, conditions: Homo sapiens
row,Structure (SMILES),IC50 [nM]
1,"Nc1ncnc2c1c(-c1ccc(Oc3ccccc3)cc1)nn2C1CCN(C2CN(C3CCN(c4ccc5c(c4)C(=O)N(C4CCC(=O)NC4=O)C5=O)CC3)C2)CC1 (stereo not drawn) [Compound 23, 5-[4-[3-[4-[4-amino-3-(4-phenoxyphenyl)pyrazolo[3,4-d]pyrimidin-1-yl]-1-piperidyl]azetidin-1-yl]-1-piperidyl]-2-(2,6-dioxo-3-piperidyl)isoindoline-1,3-dione]",295
2,"Nc1ncnc2c1c(-c1ccc(Oc3ccccc3)cc1)nn2C1CCN(C2CCN(C3CN(c4ccc5c(c4)C(=O)N(C4CCC(=O)NC4=O)C5=O)C3)C2)CC1 (stereo not drawn) [Compound 24, 5-[3-[3-[4-[4-amino-3-(4-phenoxyphenyl)pyrazolo[3,4-d]pyrimidin-1-yl]-1-piperidyl]pyrrolidin-1-yl]azetidin-1-yl]-2-(2,6-dioxo-3-piperidyl)isoindoline-1,3-dione]",629
3,"Nc1ncnc2c1c(-c1ccc(Oc3ccccc3)cc1)nn2C1CCN(C2CCN(C3CN(c4ccc5c(c4)CN(C4CCC(=O)NC4=O)C5=O)C3)CC2)CC1 (stereo not drawn) [Compound 25, 3-[5-[3-[4-[4-[4-amino-3-(4-phenoxyphenyl)pyrazolo[3,4-d]pyrimidin-1-yl]-1-piperidyl]-1-piperidyl]azetidin-1-yl]-1-oxo-isoindolin-2-yl]piperidine-2,6-dione]",282
4,"Nc1ncnc2c1c(-c1ccc(Oc3ccccc3)cc1)nn2C1CCN(C2CN(C3CN(c4cccc5c4C(=O)N(C4CCC(=O)NC4=O)C5=O)C3)C2)CC1 (stereo not drawn) [Compound 27, 4-[3-[3-[4-[4-amino-3-(4-phenoxyphenyl)pyrazolo[3,4-d]pyrimidin-1-yl]-1-piperidyl]azetidin-1-yl]azetidin-1-yl]-2-(2,6-dioxo-3-piperidyl)isoindoline-1,3-dione]",503
5,"Nc1ncnc2c1c(-c1ccc(Oc3ccccc3)cc1)nn2C1CCN(C2CC3(CCN(C4CN(c5ccc6c(c5)C(=O)N(C5CCC(=O)NC5=O)C6=O)C4)CC3)C2)CC1 (stereo not drawn) [Compound 50, 5-(3-(2-(4-(4-amino-3-(4-phenoxyphenyl)-1H-pyrazolo[3,4-d]pyrimidin-1-yl)piperidin-1-yl)-7-azaspiro[3.5]nonan-7-yl)azetidin-1-yl)-2-(2,6-dioxopiperidin-3-yl)isoindoline-1,3-dione]",112

# Same assay, conditions: inhibition rate at the highest concentration of the compound
row,Structure (SMILES),Mino Max inhi. % [%]
1,"Nc1ncnc2c1c(-c1ccc(Oc3ccccc3)cc1)nn2C1CCN(C2CN(C3CCN(C4CCN(c5ccc6c(c5)C(=O)N(C5CCC(=O)NC5=O)C6=O)CC4)CC3)C2)CC1 (stereo not drawn) [Compound 15, 5-[4-[4-[3-[4-[4-amino-3-(4-phenoxyphenyl)pyrazolo[3,4-d]pyrimidin-1-yl]-1-piperidyl]azetidin-1-yl]-1-piperidyl]-1-piperidyl]-2-(2,6-dioxo-3-piperidyl)isoindoline-1,3-dione]",99.8
2,"Nc1ncnc2c1c(-c1ccc(Oc3ccccc3)cc1)nn2C1CCN(C2CCN(C3CN(C4CCN(c5ccc6c(c5)C(=O)N(C5CCC(=O)NC5=O)C6=O)CC4)C3)C2)CC1 (stereo not drawn) [Compound 16, 5-[4-[3-[3-[4-[4-amino-3-(4-phenoxyphenyl)pyrazolo[3,4-d]pyrimidin-1-yl]-1-piperidyl]pyrrolidin-1-yl]azetidin-1-yl]-1-piperidyl]-2-(2,6-dioxo-3-piperidyl)isoindoline-1,3-dione]",99.7
3,"Nc1ncnc2c1c(-c1ccc(Oc3ccccc3)cc1)nn2C1CCN(C2CN(C3CN(c4ccc5c(c4)CN(C4CCC(=O)NC4=O)C5=O)C3)C2)CC1 (stereo not drawn) [Compound 26, 3-[5-[3-[3-[4-[4-amino-3-(4-phenoxyphenyl)pyrazolo[3,4-d]pyrimidin-1-yl]-1-piperidyl]azetidin-1-yl]azetidin-1-yl]-1-oxo-isoindolin-2-yl]piperidine-2,6-dione]",74.3
4,"Nc1ncnc2c1c(-c1ccc(Oc3ccccc3)cc1)nn2C1CCN(C2CN(C3CN(c4ccc5c(c4)C(=O)N(C4CCC(=O)NC4=O)C5=O)C3)C2)C1 (stereo not drawn) [Compound 29, 5-(3-(3-(4-amino-3-(4-phenoxyphenyl)-1H-pyrazolo[3,4-d]pyrimidin-1-yl)pyrrolidin-1-yl)-[1,3′-biazetidin]-1′-yl)-2-(2,6-dioxopiperidin-3-yl)isoindoline-1,3-dione trifluoroacetate]",71.2
5,"NC(=O)c1c(-c2ccc(Oc3ccccc3)cc2)nn2c1NCC[C@H]2C1CCN(C2CCN(C3CN(c4ccc5c(c4)C(=O)N(C4CCC(=O)NC4=O)C5=O)C3)CC2)CC1 (stereo partly drawn) [Compound 30, (7S)-7-[1-[1-[1-[2-(2,6-dioxo-3-piperidyl)-1,3-dioxo-isoindolin-5-yl]azetidin-3-yl]-4-piperidyl]-4-piperidyl]-2-(4-phenoxyphenyl)-4,5,6,7-tetrahydropyrazolo[1,5-a]pyrimidine-3-carboxamide trifluoroacetate]",82.5
6,"NC(=O)c1c(-c2ccc(Oc3ccccc3)cc2)nn2c1NCC[C@H]2C1CCN(C2CN(C3CN(c4ccc5c(c4)C(=O)N(C4CCC(=O)NC4=O)C5=O)C3)C2)CC1 (stereo partly drawn) [Compound 31, (7S)-7-[1-[1-[1-[2-(2,6-dioxo-3-piperidyl)-1,3-dioxo-isoindolin-5-yl]azetidin-3-yl]azetidin-3-yl]-4-piperidyl]-2-(4-phenoxyphenyl)-4,5,6,7-tetrahydropyrazolo[1,5-a]pyrimidine-3-carboxamide trifluoroacetate]",78.3
7,"NC(=O)c1c(-c2ccc(Oc3ccccc3)cc2)nn2c1NCC[C@H]2C1CCN(C2CCN(c3ccc4c(c3)C(=O)N(C3CCC(=O)NC3=O)C4=O)CC2)CC1 (stereo partly drawn) [Compound 48, (7S)-7-(1′-(2-(2,6-dioxopiperidin-3-yl)-1,3-dioxo-isoindolin-5-yl)-[1,4′-bipiperidin]-4-yl)-2-(4-phenoxyphenyl)-4,5,6,7-tetrahydropyrazolo[1,5-a]pyrimidine-3-carboxamide]",95.7
8,"Nc1ncnc2c1c(-c1ccc(Oc3ccccc3)cc1)nn2C1CCN(C2CC3(CCN(C4CC5(CCN(c6ccc7c(c6)C(=O)N(C6CCC(=O)NC6=O)C7=O)CC5)C4)CC3)C2)CC1 (stereo not drawn) [Compound 51, 5-(2′-(4-(4-amino-3-(4-phenoxyphenyl)-1H-pyrazolo[3,4-d]pyrimidin-1-yl)piperidin-1-yl)-7,7′-diaza[2,7′-bispiro[3.5]nonan]-7-yl)-2-(2,6-dioxopiperidin-3-yl)isoindoline-1,3-dione]",99.7
